Data reported in patent US6716809B1, “Mage-A3 peptides presented by HLA class molecules” (priority 1997, dated 2004).

B1: MAGE-A3: MAGE-A3 protein; recombinant His-MAGE-A3 produced in E. coli, or expressed from MFG MAGE-A3 retrovirus in Example 6 (protein, listed as Homo sapiens)
chain: MPLEQRSQHCKPEEGLEARGEALGLVGAQAPATEEQEAASSSSTLVEVTLGEVPAAESPDPPQSPQGASSLPTTMNYPLWSQSYEDSSNQEEEGPSTFPDLESEFQAALSRKVAELVHFLLLKYRAREPVTKAEMLGSVVGNWQYFFPVIFSKASSSLQLVFGIELMEVDPIGHLYIFATCLGLSYDGLLGDNQIMPKAGLLIIVLAIIAREGDCAPEEKIWEELSVLEVFEGREDSILGDPKKLLTQHFVQENYLEYRQVPGSDPACYEFLWGPRALVETSYVKVLHHMVKISGGPHISYPPLHEWVLREGEE
modifications: His tag

Legend:
Type in all cases: cell-based, human
[1] = system: CD4+ clone 436/B6.37 (B6/37); experiment: IFN-γ/TNF production by CD4+ clone B6/37 (clone 37) stimulated with peptide- or protein-pulsed EBV-B cells
Procedure, shortened: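 CD4+ clone (2,500 cells) cocultured 18-20 h with 5,000 EBV-B cells pre-pulsed 2 h at 37 °C with MAGE-A3 peptides or 18-20 h with 20 μg/ml His-MAGE-A3 protein; ovalbumin as negative control. IFN-γ measured by ELISA, TNF by WEHI 164 clone 13 cytotoxicity (MTT); triplicates.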

[2] = system: CD4+ clone 436/B6.34 (B6/34); experiment: TNF/IFN-γ production by CD4+ clone B6/34 stimulated with peptide-pulsed EBV-B cells
Protocol: In order to identify the MAGE-A3 peptides recognized by these CD4^+ clones, 16 amino acid peptides, corresponding to parts of the MAGE-A3 protein sequence were synthesized, loaded on the autologous EBV-B cells and tested for recognition (FIGS. 4 and 5). Peptides were synthesized using F-moc for transient NH2-terminal protection and were characterized using mass spectrometry. All peptides were >80% pure as indicated by analytical HPLC. Lyophilized synthetic peptides were dissolved in DMSO (Merck) and used at a final concentration of 500 μM, 50 μM or 5 μg/ml. EBV-B cells (5,000 per round-bottomed microwell) were incubated 2 hours at 37° C., 8% CO2 in the presence of the different peptides, the indicated concentrations representing the peptide concentration during the incubation step. CD4^+ clones were then added at 2,500 cells per well. Assay medium was Iscove's medium supplemented with L-glutamine, L-arginine, L-asparagine, 10% human serum and IL-2 (25 U/ml). After 18-20 hours, supernatants were harvested and assessed for TNF-α and/or IFN-γ secretion. IFN-γ production was measured using an ELISA test (20-4000 pg/ml) developed in the laboratory with reagents from Medgenix Diagnostics-Biosource (Fleurus, Belgium).

[3] = system: clone 37; experiment: Presentation of exogenous MAGE-A3 by HLA-DR13 dendritic cells to clone 37 (IFN-γ ELISA); conditions: 10^4 HLA-DR13 dendritic cells in 100 μl pre-incubated 24 h; 2500 clone 37 cells, 20 h
Protocol: Clone 37 was obtained with autologous dendritic cells heavily loaded with MAGE-A3 protein. To determine the ability of dendritic cells that capture a quantity of MAGE-A3 protein released by a few MAGE-A3^+ cells to stimulate CD4^+ T cells, HLA-DR13 dendritic cells were incubated for 24h with decreasing concentrations of MAGE-A3 as depicted in (FIG. 9A). Stimulation of clone 37 was tested by washing the cells, distributing the cells in round-bottomed microwells, and adding 2500 clone 37 cells. IFN-γ secretion was measured by ELISA after 20h of coculture. Experiments were performed in triplicate. Half maximum production of IFN-γ was obtained when 10^4 dendritic cells in a volume of 100 μl were pre-incubated with 30 ng of MAGE-A3, the quantity of MAGE-A3 present in around 2×10^4 MZ2-MEL.43 tumor cells.

| Molecule | activation of clone B6/37 by 16 amino acid peptides [1] | stimulation of clone 37 ([1]; same conditions (peptide 10 ng/ml; HLA-DR13 EBV-B cells)) | activation of clone B6/34 by 16 amino acid peptides [2] | quantity of MAGE-A3 giving half maximum production of IFN-γ [3] [ng] |
| --- | --- | --- | --- | --- |
| FLLLKYRAREPVTKAE (listed as Homo sapiens) [MAGE-A3119-134] | unable to activate | not stimulated | unable to activate | – |
| B1 | – | – | – | 30 |
